Results published in US8445510B2, “Fused bicyclic kinase inhibitors” (OSI Pharmaceuticals, LLC, priority 2011, dated 2013).

Tests used:
RON = target: T1, RON (Homo sapiens, UniProt Q04912); assay: sfRON cell mechanistic assay (HeLa), phosphorylated RON ELISA; assay type: cell-based; settings: HeLa cells transfected with sfRON; inhibition of phosphorylated RON; four hours incubation; at least duplicate experiments; read-out: sfRON mech IC50
T1 sequence (Q04912 913-1400): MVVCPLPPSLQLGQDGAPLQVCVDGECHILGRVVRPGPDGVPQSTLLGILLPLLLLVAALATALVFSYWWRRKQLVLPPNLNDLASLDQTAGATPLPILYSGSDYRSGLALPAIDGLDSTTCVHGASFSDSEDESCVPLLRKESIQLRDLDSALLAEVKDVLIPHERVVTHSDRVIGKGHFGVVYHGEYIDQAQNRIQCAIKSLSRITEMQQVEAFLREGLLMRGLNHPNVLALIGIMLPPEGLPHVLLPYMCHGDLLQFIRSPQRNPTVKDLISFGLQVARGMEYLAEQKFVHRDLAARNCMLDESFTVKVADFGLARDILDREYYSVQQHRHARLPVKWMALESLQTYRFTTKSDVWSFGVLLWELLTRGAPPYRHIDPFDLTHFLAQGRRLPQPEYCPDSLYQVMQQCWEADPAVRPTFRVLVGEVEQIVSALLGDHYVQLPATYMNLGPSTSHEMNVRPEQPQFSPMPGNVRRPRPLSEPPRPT
Method in brief: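 HeLa cells transiently transfected with sfRON plasmid, then exposed 4 h at 37 °C to a 6-point compound series (typically 10 μM to 3 nM, 0.5% DMSO). Phospho-RON (pY1238/1239) in lysates measured by sandwich ELISA with luminescence. IC50 from 4-parameter fit of percent-of-DMSO-control data, at least duplicate runs.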

MKN45 cells = assay: MKN45 cell proliferation assay (CellTiter-Glo); assay type: cell-based; settings: Homo sapiens, MKN-45, 72 h; MKN45 cell line; 3 days incubation; at least duplicate experiments; read-out: Prolif. IC50

Row | IC50 (RON) [nM] | IC50 (MKN45 cells) [nM] | Compound
1 | > 1000 | ≤ 50 | CCc1c(-c2cnc3[nH]cc([C@H](C)c4c(OC)ccc(F)c4Cl)c3c2)cnn1[C@H]1CC[C@H](O)CC1 [Example 48, trans-4-(4-{3-[(1S)-1-(2-Chloro-3-fluoro-6-methoxyphenyl)ethyl]-1H-pyrrolo[2,3-b]pyridin-5-yl}-5-ethyl-1H-pyrazol-1-yl)cyclohexanol]
2 | > 1000 | ≤ 50 | COc1ccc(F)c(Cl)c1[C@@H](C)c1c[nH]c2ncc(-c3cnn([C@H]4CC[C@H](O)CC4)c3Cl)cc12 [Example 49, trans-4-(5-Chloro-4-{3-[(1S)-1-(2-chloro-3-fluoro-6-methoxyphenyl)ethyl]-1H-pyrrolo[2,3-b]pyridin-5-yl}-1H-pyrazol-1-yl)cyclohexanol]
3 | > 1000 | 50 to 200 | COc1ccc(F)c(Cl)c1[C@@H](C)c1c[nH]c2ncc(-c3cn(C)nc3CN)cc12 [Example 50, 1-(4-{3-[(1S)-1-(2-Chloro-3-fluoro-6-methoxyphenyl)ethyl]-1H-pyrrolo[2,3-b]pyridin-5-yl}-1-methyl-1H-pyrazol-3-yl)methanamine]
4 | > 1000 | 50 to 200 | COc1ccc(F)c(Cl)c1[C@@H](C)c1c[nH]c2ncc(-c3c(CO)nn(C)c3C)cc12 [Example 51, (4-{3-[(1S)-1-(2-Chloro-3-fluoro-6-methoxyphenyl)ethyl]-1H-pyrrolo[2,3-b]pyridin-5-yl}-1,5-dimethyl-1H-pyrazol-3-yl)methanol]
5 | 200 to 1000 | ≤ 50 | COc1ccc(F)c(Cl)c1[C@@H](C)c1c[nH]c2ncc(-c3cnn([C@H]4CC[C@@H](O)CC4)c3C)cc12 [Example 52, cis-4-(4-{3-[(1S)-1-(2-Chloro-3-fluoro-6-methoxyphenyl)ethyl]-1H-pyrrolo[2,3-b]pyridin-5-yl}-5-methyl-1H-pyrazol-1-yl)cyclohexanol]
6 | 200 to 1000 | ≤ 50 | COc1ccc(F)c(Cl)c1[C@@H](C)c1c[nH]c2ncc(-c3cnn([C@H]4CC[C@H](N(C)C)CC4)c3C)cc12 [Example 53, trans-4-(4-{3-[(1S)-1-(2-Chloro-3-fluoro-6-methoxyphenyl)ethyl]-1H-pyrrolo[2,3-b]pyridin-5-yl}-5-methyl-1H-pyrazol-1-yl)-N,N-dimethylcyclohexanamine]
7 | 200 to 1000 | ≤ 50 | COc1ccc(F)c(Cl)c1[C@@H](C)c1c[nH]c2ncc(-c3cnn([C@H]4CC[C@@H](N(C)C)CC4)c3C)cc12 [Example 54, cis-4-(4-{3-[(1S)-1-(2-Chloro-3-fluoro-6-methoxyphenyl)ethyl]-1H-pyrrolo[2,3-b]pyridin-5-yl}-5-methyl-1H-pyrazol-1-yl)-N,N-dimethylcyclohexanamine]
8 | > 1000 | 50 to 200 | COc1ccc(F)c(Cl)c1[C@@H](C)c1c[nH]c2ncc(-c3cn(C)nc3Cl)cc12 [Example 60, 3-[(1S)-1-(2-chloro-3-fluoro-6-methoxyphenyl)ethyl]-5-(3-chloro-1-methyl-1H-pyrazol-4-yl)-1H-pyrrolo[2,3-b]pyridine]
9 | 200 to 1000 | ≤ 50 | COc1ccc(F)c(Cl)c1[C@@H](C)c1c[nH]c2ncc(-c3cn(C)nc3OC)cc12 [Example 61, 3-[(1S)-1-(2-Chloro-3-fluoro-6-methoxyphenyl)ethyl]-5-(3-methoxy-1-methyl-1H-pyrazol-4-yl)-1H-pyrrolo[2,3-b]pyridine]
10 | > 1000 | 50 to 200 | COc1ccc(F)c(Cl)c1[C@@H](C)c1c[nH]c2ncc(-c3cnn(C)c3OC)cc12 [Example 62, 3-[(1S)-1-(2-chloro-3-fluoro-6-methoxyphenyl)ethyl]-5-(5-methoxy-1-methyl-1H-pyrazol-4-yl)-1H-pyrrolo[2,3-b]pyridine]
11 | > 1000 | 200 to 1000 | COc1ccc(F)c(Cl)c1[C@@H](C)c1c[nH]c2ncc(-c3c(C)nn(C)c3Cl)cc12 [Example 63, 5-(5-Chloro-1,3-dimethyl-1H-pyrazol-4-yl)-3-[(1S)-1-(2-chloro-3-fluoro-6-methoxyphenyl)ethyl]-1H-pyrrolo[2,3-b]pyridine]
12 | > 1000 | 50 to 200 | COc1ccc(F)c(Cl)c1[C@@H](C)c1c[nH]c2ncc(-c3cncn3C)cc12 [Example 64, 3-[(1S)-1-(2-Chloro-3-fluoro-6-methoxyphenyl)ethyl]-5-(1-methyl-1H-imidazol-5-yl)-1H-pyrrolo[2,3-b]pyridine]
13 | > 1000 | 50 to 200 | COc1ccc(F)c(Cl)c1[C@@H](C)c1c[nH]c2ncc(-c3cnc(C)n3C)cc12 [Example 65, 3-[(1S)-1-(2-chloro-3-fluoro-6-methoxyphenyl)ethyl]-5-(1,2-dimethyl-1H-imidazol-5-yl)-1H-pyrrolo[2,3-b]pyridine]
14 | 200 to 1000 | ≤ 50 | Cc1nn(C[C@@H](O)CO)c(C)c1-c1cnc2[nH]cc([C@H](C)c3c(Cl)ccc(F)c3Cl)c2c1 [Example 66, (2R)-3-(4-{3-[(1S)-1-(2,6-Dichloro-3-fluorophenyl)ethyl]-1H-pyrrolo[2,3-b]pyridin-5-yl}-3,5-dimethyl-1H-pyrazol-1-yl)propane-1,2-diol]
15 | 200 to 1000 | ≤ 50 | Cc1c(-c2cnc3[nH]cc([C@H](C)c4c(Cl)ccc(F)c4Cl)c3c2)cnn1[C@H]1CC[C@H](O)CC1 [Example 67, trans-4-(4-{3-[(1S)-1-(2,6-Dichloro-3-fluorophenyl)ethyl]-1H-pyrrolo[2,3-b]pyridin-5-yl}-5-methyl-1H-pyrazol-1-yl)cyclohexanol]

The next lines start with the compound.

Row | Compound | IC50 (RON) [nM] | IC50 (MKN45 cells) [nM]
16 | COc1ccc(F)c(Cl)c1[C@@H](C)c1c[nH]c2ncc(-c3cnn(C[C@@H](O)CO)c3C(F)(F)F)cc12 [Example 35, (2R)-3-[4-{3-[(1S)-1-(2-Chloro-3-fluoro-6-methoxyphenyl)ethyl]-1H-pyrrolo[2,3-b]pyridin-5-yl}-5-(trifluoromethyl)-1H-pyrazol-1-yl]propane-1,2-diol] | > 1000 | 50 to 200
17 | COc1ccc(F)c(Cl)c1[C@@H](C)c1c[nH]c2ncc(-c3cnn(C)c3N)cc12 [Example 38, 4-{3-[(1S)-1-(2-Chloro-3-fluoro-6-methoxyphenyl)ethyl]-1H-pyrrolo[2,3-b]pyridin-5-yl}-1-methyl-1H-pyrazol-5-amine] | 200 to 1000 | ≤ 50
18 | COc1ccc(F)c(Cl)c1[C@@H](C)c1c[nH]c2ncc(-c3cn(C)nc3C(N)=O)cc12 [Example 39, 4-{3-[(1S)-1-(2-Chloro-3-fluoro-6-methoxyphenyl)ethyl]-1H-pyrrolo[2,3-b]pyridin-5-yl}-1-methyl-1H-pyrazole-3-carboxamide] | > 1000 | 50 to 200
19 | COc1ccc(F)c(Cl)c1[C@@H](C)c1c[nH]c2ncc(-c3c(C)nn(C)c3C(N)=O)cc12 [Example 41, 4-{3-[(1S)-1-(2-Chloro-3-fluoro-6-methoxyphenyl)ethyl]-1H-pyrrolo[2,3-b]pyridin-5-yl}-1,3-dimethyl-1H-pyrazole-5-carboxamide] | > 1000 | > 1000
20 | COc1ccc(F)c(Cl)c1[C@@H](C)c1c[nH]c2ncc(-c3cn(C)nc3CO)cc12 [Example 42, (4-{3-[(1S)-1-(2-Chloro-3-fluoro-6-methoxyphenyl)ethyl]-1H-pyrrolo[2,3-b]pyridin-5-yl}-1-methyl-1H-pyrazol-3-yl)methanol] | > 1000 | 50 to 200
21 | COc1ccc(F)c(Cl)c1[C@@H](C)c1c[nH]c2ncc(-c3cnn(C)c3C(N)=O)cc12 [Example 43, 4-{3-[(1S)-1-(2-Chloro-3-fluoro-6-methoxyphenyl)ethyl]-1H-pyrrolo[2,3-b]pyridin-5-yl}-1-methyl-1H-pyrazole-5-carboxamide] | > 1000 | 200 to 1000
22 | COc1ccc(F)c(Cl)c1[C@@H](C)c1c[nH]c2ncc(-c3cnn(C)c3CO)cc12 [Example 44, (4-{3-[(1S)-1-(2-Chloro-3-fluoro-6-methoxyphenyl)ethyl]-1H-pyrrolo[2,3-b]pyridin-5-yl}-1-methyl-1H-pyrazol-5-yl)methanol] | > 1000 | 50 to 200
23 | COc1ccc(F)c(Cl)c1[C@@H](C)c1c[nH]c2ncc(-c3c(C)nn(C)c3CO)cc12 [Example 45, (4-{3-[(1S)-1-(2-Chloro-3-fluoro-6-methoxyphenyl)ethyl]-1H-pyrrolo[2,3-b]pyridin-5-yl}-1,3-dimethyl-1H-pyrazol-5-yl)methanol] | > 1000 | 200 to 1000
24 | COc1ccc(F)c(Cl)c1[C@@H](C)c1c[nH]c2ncc(-c3cn(C)nc3C#N)cc12 [Example 46, 4-{3-[(1S)-1-(2-Chloro-3-fluoro-6-methoxyphenyl)ethyl]-1H-pyrrolo[2,3-b]pyridin-5-yl}-1-methyl-1H-pyrazole-3-carbonitrile] | > 1000 | 50 to 200
25 | CCc1nn([C@H]2CC[C@H](O)CC2)cc1-c1cnc2[nH]cc([C@H](C)c3c(OC)ccc(F)c3Cl)c2c1 [Example 47, trans-4-(4-{3-[(1S)-1-(2-Chloro-3-fluoro-6-methoxyphenyl)ethyl]-1H-pyrrolo[2,3-b]pyridin-5-yl}-3-ethyl-1H-pyrazol-1-yl)cyclohexanol] | 200 to 1000 | ≤ 50
